According to the supplement of paper PMC10307832:

What was measured:
Experiment in all cases: relative viability (nuclei count vs DMSO), 5 days (fraction); higher = more cells survive
[1] = compound: C1=CC2=NC=CN=C2C=C1/C=C/3\C(=O)NC(=O)S3 + Cc1cc(Nc2cc(N3CCN(C)CC3)nc(Sc3ccc(NC(=O)C4CC4)cc3)n2)n[nH]1 [Tozasertib] (partner 0.1 µM)
Method in brief: (§1)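 Lung cancer cell lines in 1536-well plates got either a single drug or a fixed anchor-drug dose together with five library-drug doses (not always all listed) in √10 steps, by pin tool, on the day after seeding. Nuclei were counted after 5 days, and relative viability is the treated-to-vehicle ratio of nuclei counts. Values are medians of duplicate plates.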

[2] = compound: C1=CC2=NC=CN=C2C=C1/C=C/3\C(=O)NC(=O)S3 + O=C(c1cc(Cc2n[nH]c(=O)c3ccccc23)ccc1F)N1CCN(C(=O)C2CC2)CC1 [Olaparib] (partner 8 µM)
Method in brief: as §1

[3] = compound: C1=CC2=NC=CN=C2C=C1/C=C/3\C(=O)NC(=O)S3 + CS(=O)(=O)CCNCc1ccc(-c2ccc3ncnc(Nc4ccc(OCc5cccc(F)c5)c(Cl)c4)c3c2)o1 [Lapatinib] (partner 2 µM)
Method in brief: as §1

[4] = compound: C1=CC2=NC=CN=C2C=C1/C=C/3\C(=O)NC(=O)S3 + CC(C)C[C@H](NC(=O)[C@H](Cc1ccccc1)NC(=O)c1cnccn1)B(O)O [Bortezomib] (partner 0.002 µM)
Method in brief: as §1

NCI-H1944
relative viability ([1]; first compound 0.02 µM): 0.254
relative viability ([1]; first compound 0.06325 µM): 0.206
relative viability ([1]; first compound 0.2 µM): 0.261
relative viability ([1]; first compound 0.6325 µM): 0.239
relative viability ([1]; first compound 2 µM): 0.238
relative viability ([2]; first compound 0.02 µM): 0.384
relative viability ([2]; first compound 0.06325 µM): 0.391
relative viability ([2]; first compound 0.2 µM): 0.333
relative viability ([2]; first compound 0.6325 µM): 0.412
relative viability ([2]; first compound 2 µM): 0.418
relative viability ([3]; first compound 0.02 µM): 0.834
relative viability ([3]; first compound 0.06325 µM): 0.966
relative viability ([3]; first compound 0.2 µM): 0.801
relative viability ([3]; first compound 0.6325 µM): 0.735
relative viability ([3]; first compound 2 µM): 0.486

NCI-H1793
relative viability ([1]; first compound 0.02 µM): 0.392
relative viability ([1]; first compound 0.06325 µM): 0.273
relative viability ([1]; first compound 0.2 µM): 0.38
relative viability ([1]; first compound 0.6325 µM): 0.324
relative viability ([1]; first compound 2 µM): 0.281
relative viability ([2]; first compound 0.02 µM): 0.805
relative viability ([2]; first compound 0.06325 µM): 0.752
relative viability ([2]; first compound 0.2 µM): 0.801
relative viability ([2]; first compound 0.6325 µM): 0.779
relative viability ([2]; first compound 2 µM): 0.702
relative viability ([3]; first compound 0.02 µM): 0.702
relative viability ([3]; first compound 0.06325 µM): 0.532
relative viability ([3]; first compound 0.2 µM): 0.832
relative viability ([3]; first compound 0.6325 µM): 0.725
relative viability ([3]; first compound 2 µM): 0.773

A549
relative viability ([2]; first compound 0.02 µM): 0.284
relative viability ([2]; first compound 0.06325 µM): 0.133
relative viability ([2]; first compound 0.2 µM): 0.366
relative viability ([2]; first compound 0.6325 µM): 0.335
relative viability ([2]; first compound 2 µM): 0.12
relative viability ([3]; first compound 0.02 µM): 0.893
relative viability ([3]; first compound 0.06325 µM): 1.04
relative viability ([3]; first compound 0.2 µM): 1.04
relative viability ([3]; first compound 0.6325 µM): 0.9
relative viability ([3]; first compound 2 µM): 0.874

NCI-H358
relative viability ([1]; first compound 0.02 µM): 0.1
relative viability ([1]; first compound 0.06325 µM): 0.11
relative viability ([1]; first compound 0.2 µM): 0.0984
relative viability ([1]; first compound 0.6325 µM): 0.127
relative viability ([1]; first compound 2 µM): 0.0886
relative viability ([2]; first compound 0.02 µM): 0.559
relative viability ([2]; first compound 0.06325 µM): 0.663
relative viability ([2]; first compound 0.2 µM): 0.65
relative viability ([2]; first compound 0.6325 µM): 0.667
relative viability ([2]; first compound 2 µM): 0.419
relative viability ([3]; first compound 0.02 µM): 0.554
relative viability ([3]; first compound 0.06325 µM): 0.497
relative viability ([3]; first compound 0.2 µM): 0.461
relative viability ([3]; first compound 0.6325 µM): 0.359
relative viability ([3]; first compound 2 µM): 0.274

NCI-H1563
relative viability ([3]; first compound 0.02 µM): 0.876
relative viability ([3]; first compound 0.06325 µM): 0.854
relative viability ([3]; first compound 0.2 µM): 0.898
relative viability ([3]; first compound 0.6325 µM): 0.867
relative viability ([3]; first compound 2 µM): 0.873
relative viability ([4]; first compound 0.02 µM): 0.828
relative viability ([4]; first compound 0.06325 µM): 0.788
relative viability ([4]; first compound 0.2 µM): 0.871
relative viability ([4]; first compound 0.6325 µM): 0.753
relative viability ([4]; first compound 2 µM): 0.715

NCI-H1395
relative viability ([1]; first compound 0.02 µM): 0.725
relative viability ([1]; first compound 0.06325 µM): 0.794
relative viability ([1]; first compound 0.2 µM): 0.777
relative viability ([1]; first compound 0.6325 µM): 0.729
relative viability ([1]; first compound 2 µM): 0.809
relative viability ([2]; first compound 0.02 µM): 0.43
relative viability ([2]; first compound 0.06325 µM): 0.427
relative viability ([2]; first compound 0.2 µM): 0.464
relative viability ([2]; first compound 0.6325 µM): 0.5
relative viability ([2]; first compound 2 µM): 0.438
relative viability ([3]; first compound 0.02 µM): 1.13
relative viability ([3]; first compound 0.06325 µM): 1.06
relative viability ([3]; first compound 0.2 µM): 1.46
relative viability ([3]; first compound 0.6325 µM): 0.935
relative viability ([3]; first compound 2 µM): 0.963

SW 900
relative viability ([1]; first compound 0.02 µM): 0.453
relative viability ([1]; first compound 0.06325 µM): 0.607
relative viability ([1]; first compound 0.2 µM): 0.702
relative viability ([1]; first compound 0.6325 µM): 0.545
relative viability ([1]; first compound 2 µM): 0.566
relative viability ([2]; first compound 0.02 µM): 0.789
relative viability ([2]; first compound 0.06325 µM): 0.769
relative viability ([2]; first compound 0.2 µM): 0.884
relative viability ([2]; first compound 2 µM): 0.727

IA-LM
relative viability ([2]; first compound 0.02 µM): 0.404
relative viability ([2]; first compound 0.06325 µM): 1.02
relative viability ([2]; first compound 0.2 µM): 0.797
relative viability ([2]; first compound 0.6325 µM): 0.836
relative viability ([2]; first compound 2 µM): 0.871
relative viability ([3]; first compound 0.02 µM): 0.69
relative viability ([3]; first compound 0.2 µM): 0.698
relative viability ([3]; first compound 0.6325 µM): 0.771
relative viability ([3]; first compound 2 µM): 0.65
relative viability ([4]; first compound 0.02 µM): 0.654
relative viability ([4]; first compound 0.06325 µM): 0.918
relative viability ([4]; first compound 0.2 µM): 0.865
relative viability ([4]; first compound 0.6325 µM): 0.788
relative viability ([4]; first compound 2 µM): 0.728

NCI-H1703
relative viability ([2]; first compound 0.02 µM): 0.428
relative viability ([2]; first compound 0.06325 µM): 0.405
relative viability ([2]; first compound 0.2 µM): 0.434
relative viability ([2]; first compound 0.6325 µM): 0.27
relative viability ([2]; first compound 2 µM): 0.322
relative viability ([3]; first compound 0.02 µM): 1.06
relative viability ([3]; first compound 0.06325 µM): 1.29
relative viability ([3]; first compound 0.2 µM): 1.07
relative viability ([3]; first compound 0.6325 µM): 0.946
relative viability ([3]; first compound 2 µM): 0.89
relative viability ([4]; first compound 0.02 µM): 0.288
relative viability ([4]; first compound 0.06325 µM): 0.322
relative viability ([4]; first compound 0.2 µM): 0.38
relative viability ([4]; first compound 0.6325 µM): 0.474
relative viability ([4]; first compound 2 µM): 0.489

NCI-H441
relative viability ([1]; first compound 0.02 µM): 0.661
relative viability ([1]; first compound 0.06325 µM): 0.828
relative viability ([1]; first compound 0.2 µM): 0.743
relative viability ([1]; first compound 0.6325 µM): 0.62
relative viability ([1]; first compound 2 µM): 0.366
relative viability ([2]; first compound 0.02 µM): 0.539
relative viability ([2]; first compound 0.06325 µM): 0.708
relative viability ([2]; first compound 0.2 µM): 0.559
relative viability ([2]; first compound 0.6325 µM): 0.481
relative viability ([2]; first compound 2 µM): 0.345
relative viability ([4]; first compound 0.02 µM): 0.272
relative viability ([4]; first compound 0.06325 µM): 0.289
relative viability ([4]; first compound 0.6325 µM): 0.403
relative viability ([4]; first compound 2 µM): 0.494

LCLC-103H
relative viability ([1]; first compound 0.02 µM): 0.563
relative viability ([1]; first compound 0.06325 µM): 0.424
relative viability ([1]; first compound 0.2 µM): 0.45
relative viability ([1]; first compound 0.6325 µM): 0.52
relative viability ([1]; first compound 2 µM): 0.456
relative viability ([2]; first compound 0.02 µM): 0.75
relative viability ([2]; first compound 0.06325 µM): 0.788
relative viability ([2]; first compound 0.2 µM): 0.727
relative viability ([2]; first compound 0.6325 µM): 0.725
relative viability ([2]; first compound 2 µM): 0.729
relative viability ([4]; first compound 0.02 µM): 1.08
relative viability ([4]; first compound 0.06325 µM): 1.05
relative viability ([4]; first compound 0.2 µM): 1.06
relative viability ([4]; first compound 0.6325 µM): 1
relative viability ([4]; first compound 2 µM): 0.931

NCI-H1648
relative viability ([1]; first compound 0.02 µM): 0.408
relative viability ([1]; first compound 0.2 µM): 0.629
relative viability ([1]; first compound 0.6325 µM): 0.404
relative viability ([1]; first compound 2 µM): 0.416
relative viability ([2]; first compound 0.02 µM): 0.795
relative viability ([2]; first compound 0.06325 µM): 0.547
relative viability ([2]; first compound 0.2 µM): 0.886
relative viability ([2]; first compound 2 µM): 0.563
